The values that follow come from article PMC6044507 (ACS Omega, 2018).

Entries after “also recorded” stand apart in the source; their conditions may differ.

The target in data set [1] is T1, human GPR84 (Homo sapiens, UniProt Q9NQS5). Kind of data set: cell-based. The settings on record: EC50 ± SEM, β-arrestin assay, CHO cells expressing human GPR84.
Target sequence in this assay (Q9NQS5 whole entry): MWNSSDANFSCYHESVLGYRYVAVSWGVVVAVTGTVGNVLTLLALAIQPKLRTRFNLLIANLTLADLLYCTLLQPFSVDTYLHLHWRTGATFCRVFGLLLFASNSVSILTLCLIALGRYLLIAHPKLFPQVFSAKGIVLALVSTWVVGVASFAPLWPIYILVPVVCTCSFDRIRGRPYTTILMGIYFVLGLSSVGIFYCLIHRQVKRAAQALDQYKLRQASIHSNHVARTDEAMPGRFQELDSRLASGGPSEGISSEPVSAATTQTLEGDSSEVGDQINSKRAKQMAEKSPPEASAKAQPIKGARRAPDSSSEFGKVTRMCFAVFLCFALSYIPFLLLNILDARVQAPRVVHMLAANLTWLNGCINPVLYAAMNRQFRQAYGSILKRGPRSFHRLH
Target sequence in this assay (P32121 whole entry partner): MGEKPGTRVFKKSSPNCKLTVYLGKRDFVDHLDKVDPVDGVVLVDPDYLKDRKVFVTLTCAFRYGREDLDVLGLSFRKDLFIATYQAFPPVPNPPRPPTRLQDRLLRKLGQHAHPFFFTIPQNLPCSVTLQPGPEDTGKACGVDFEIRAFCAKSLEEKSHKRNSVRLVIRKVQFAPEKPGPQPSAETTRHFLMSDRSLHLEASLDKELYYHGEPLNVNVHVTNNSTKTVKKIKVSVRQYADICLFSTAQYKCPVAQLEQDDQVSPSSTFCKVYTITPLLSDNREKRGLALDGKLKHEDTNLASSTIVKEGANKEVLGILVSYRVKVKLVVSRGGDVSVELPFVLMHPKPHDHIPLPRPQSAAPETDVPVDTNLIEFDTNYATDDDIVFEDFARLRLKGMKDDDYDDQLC
Data set [2] concerns the target T1, human GPR84. Description: cell-based. The data set is classed as cell-based. The settings on record: for Emax: read-out: efficacy (Emax), cAMP assay; for EC50: CHO cells expressing human GPR84, forskolin 10 μM.
Target sequence in this assay (Q9NQS5 whole entry): as the sequence (Q9NQS5 whole entry) above
A short description of data set [3]: metabolic stability in human liver microsomes. The settings on record: for metabolic stability, in words: human liver microsomes 0.5 mg/mL, compound 1 μM; for degradation after an incubation period of 60 min: human liver microsomes. The format is in vitro ADME.
Data set [4] has as its system CHO wild-type (wt) cells. Description: cAMP accumulation assay in wild-type CHO cells not expressing GPR84. A general note: cAMP levels reflect the balance of adenylyl cyclase and phosphodiesterase activity.
Data set [5] deals with human GPR84. Description: pathway bias calculation, Gi. The data set is classed as cell-based. The settings on record: corresponding to the bias factor.
For data set [6], the target named is T1, human GPR84. The settings on record: compound 10 μM.
Target sequence in this assay (Q9NQS5 whole entry): as above
Target sequence in this assay (P32121 whole entry partner): as the sequence (P32121 whole entry partner) above
Data set [7] concerns X-linked inhibitor of apoptosis. The settings on record: read-out: IC50, X-linked inhibitor of apoptosis; cited from earlier work.
The subject of data set [8] is rodents. The settings on record: orally, acute exposure; cited from earlier work.
The mark [9] stands for this setting: both, human, pooled human liver microsomes.
Setting [10] is: high concentrations of up to 100 μM.

With `CCCCCCCCCNc1cc(=O)[nH]c(=O)[nH]1` [Compound 22, 6-Nonylamino-2,4(1H,3H)-pyrimidinedione], the EC50 (commonly the concentration needed to bring the measured effect to its halfway point) in data set [1] stood at 0.034 ± 0.007 µM. Besides, the Emax – broadly, the size of the effect at its maximum, as opposed to the concentration needed – in data set [2] is 118%. Also, in data set [3] (setting [9]), the half-life (commonly the time needed for the level to fall by half in the phase considered) at 1 μM was determined as 2 min and the microsomal CLint (in general, the capacity of the preparation to metabolise the compound, expressed as a volume cleared per time) at 1 μM turned out to be 880 µL/min/mg.
As to `O=c1cc(NCCc2ccc(Br)cc2)[nH]c(=O)[nH]1` [Compound 48, 6-(p-Bromophenylethylamino)-2,4(1H,3H)-pyrimidinedione], the “effect on forskolin-induced cAMP accumulation in CHO wt cells” value (from here on “effect … in CHO wt cells”) in data set [4] (concentrations of up to 1 μM) was “None of the tested compounds showed any significant effect”. In data set [2], the Emax was 127%. Also, in data set [3], the “metabolic stability, in words” value is recorded as “metabolically stable; also recorded: highly stable” and the “degradation after an incubation period of 60 min” value (“degradation … of 60 min” for short) is listed as “negligible”. In addition, the “degradation after 30 min of incubation, in words” value (from here on “degradation after 30 min”) in data set [3] (human microsomes, 30 min) is given as “no degradation”. Also, the “preference for Gi coupling versus β-arrestin recruitment” value in data set [5] is on record as 20 fold.
For `CCc1ccc(CCNc2cc(=O)[nH]c(=O)[nH]2)cc1` [Compound 49, 6-(p-Ethylphenylethylamino)-2,4(1H,3H)-pyrimidinedione], the “effect … in CHO wt cells” value in data set [4] (concentrations of up to 1 μM) is recorded as “None of the tested compounds showed any significant effect”. Also, the EC50 in data set [1] was 0.12 ± 0.05 µM; in data set [2] (EC50, cAMP assay), less than 0.01 µM. For the same compound, in data set [2], the Emax was 136%.
Turning to `CCCCCCNc1cc(=O)[nH]c(=O)[nH]1` [Compound 20, 6-Hexylamino-2,4(1H,3H)-pyrimidinedione], the “effect … in CHO wt cells” value in data set [4] (concentrations of up to 1 μM) was “None of the tested compounds showed any significant effect”. Moreover, the “effect … in CHO wt cells” value in data set [4] (setting [10]) was “no effect”. Moreover, in data set [2], the maximal response (Emax) is 127%. In addition, in data set [3], the “metabolic stability, in words” value was “metabolically stable; also recorded: highly stable” and the “degradation … of 60 min” value is “negligible”. Moreover, the “degradation after 30 min” value in data set [3] (human microsomes, 30 min) is recorded as “no degradation”.
As to `CCCCCCCCCCNc1cc(=O)n(C)c(=O)[nH]1` [Compound 33, 6-Decylamino-3-methyl-2,4(1H,3H)-pyrimidinedione], the “percent receptor activation at 10 μM, β-arrestin assay” value (“percent receptor activation at 10 μM” for short) in data set [6] is recorded as 8%. The EC50 in data set [1] was greater than 10 µM; in data set [2] (EC50 ± SEM, cAMP assay) it was 1.9 ± 0.68 µM. Moreover, in data set [2], the Emax is 72%.
As for `O=c1cc(NCCc2c[nH]c3ccccc23)[nH]c(=O)[nH]1` [Compound 62, 6-(1H-Indol-3-ylethylamino)-2,4(1H,3H)-pyrimidinedione], the “percent receptor activation at 10 μM” value in data set [6] was found to be 14%. In data set [1], this compound displayed an EC50 greater than 10 µM.
On to `COc1ccc(CCNc2cc(=O)[nH]c(=O)[nH]2)cc1OC` [Compound 60, 6-(m,p-Dimethoxyphenethylamino)-2,4(1H,3H)-pyrimidinedione], for which the “percent receptor activation at 10 μM” value in data set [6] worked out at 28%. The EC50 is greater than 10 µM in data set [1] and 0.81 ± 0.23 µM in data set [2] (EC50 ± SEM, cAMP assay). Moreover, in data set [2], the Emax is 116%.
`CCCCCCSc1nc(O)cc(O)n1` [2-hexylthiopyrimidine-4,6-diol (5), 2-hexylthiopyrimidine-4,6-diol, reference compound]: in data set [3] (human microsomes, 30 min), the “drug disappeared after 30 min of incubation” value is listed as roughly 40%.
As to `Oc1cc(NCCc2ccccc2)nc(O)n1` [Compound 42, 6-(2-Phenylethylamino)-2,4(1H,3H)-pyrimidinedione], in data set [3], the “metabolic stability, in words” value is listed as “highly stable” and the “degradation … of 60 min” value was “negligible”. Moreover, the “degradation after 30 min” value in data set [3] (human microsomes, 30 min) was “no degradation”.
For `O=c1cc(N2CCC(Cc3ccccc3)CC2)[nH]c(=O)[nH]1` [Compound 67, 6-(4-Benzylpiperidin-1yl)-2,4(1H,3H)-pyrimidinedione], the EC50 in data set [1] was 0.6 ± 0.16 µM; in data set [2] (EC50 ± SEM, cAMP assay), 0.13 ± 0.01 µM. Besides, the Emax in data set [2] was 114%.
The compound `O=c1[nH]c(NCCc2ccc(Br)cc2)c(Br)c(=O)[nH]1` [Compound 74, 5-Bromo-6-(p-bromophenylethylamino)-2,4(1H,3H)-pyrimidinedione] gave a concentration giving a half-maximal response (EC50) in data set [1] of 6.7 ± 1.8 µM. Also, the Emax in data set [2] is 114%.
With `CCCCCNc1cc(=O)[nH]c(=O)[nH]1` [Compound 19, 6-Pentylamino-2,4(1H,3H)-pyrimidinedione], the EC50 in data set [1] was found to be 4.8 ± 1.3 µM; in data set [2] (EC50 ± SEM, cAMP assay), 0.46 ± 0.13 µM. Besides, the Emax in data set [2] is 106%.
`O=c1cc(NCCc2ccc(Cl)cc2)[nH]c(=O)[nH]1` [Compound 47, 6-((p-chlorophenylethyl)amino)-2,4(1H,3H)-pyrimidinedione]: the “effect … in CHO wt cells” value in data set [4] (concentrations of up to 1 μM) is listed as “None of the tested compounds showed any significant effect”. Further, the Emax in data set [2] was 137%. Also, the “preference for Gi coupling versus β-arrestin recruitment” value in data set [5] is 79 fold.
On to `CCCCCCCCCCCC1=C(O)C(=O)C=C(O)C1=O` [embelin (6), embelin], for which the IC50 – broadly, the concentration that gives 50% inhibition – in data set [7] is 4.1 µM. Further, in data set [8], the “dose found to be safe” value is given as “up to 3 g/kg”.
On to `CCCCCCCCNc1cc(=O)[nH]c(=O)[nH]1` [Compound 4, 6-octylaminouracil], for which the “effect in nontransfected CHO cells (cAMP assay)” value in data set [4] was “no effect”. In addition, the “effect … in CHO wt cells” value is given as “None of the tested compounds showed any significant effect” in data set [4] (concentrations of up to 1 μM) and “no effect” in data set [4] (setting [10]). Also, the Emax in data set [2] was 104%.
As to `Cc1cccc(CCNc2cc(=O)[nH]c(=O)[nH]2)c1` [Compound 52, 6-(m-Methylphenylethylamino)-2,4(1H,3H)-pyrimidinedione], the EC50 was 0.78 ± 0.22 µM in data set [1] and 0.079 ± 0.025 µM in data set [2] (EC50 ± SEM, cAMP assay). The Emax in data set [2] is 134%.
